One series has as its system cardiomyocytes. Conditions: cited from earlier work. The source says:
Targeted delivery of therapeutics specifically to cardiomyocytes would open up new frontiers for common conditions like heart failure. […] CTP has been used to deliver imaging agents, small drug molecules, photosensitizing nanoparticles, exosomes, and even miRNA to cardiomyocytes. As a natural extension to the development of CTP as a clinically viable ... || Advances in the development of novel technologies in pharmaceutics today necessitate the development of safe and effective targeted delivery methods for cargoes such as nanoparticles, siRNA, drugs, and more. Cell-penetrating peptides (CPPs), which are small, positively charged peptides capable of crossing the cell membrane barrier, provide a promising method for intracellular delivery, which is highly efficient and minimally cytotoxic. Tat (HIV trans-activator of transcription) was the first CPP to be discovered to enter the cell and induce the expression of viral genes ... || Heart disease and cardiac illness continue to be a leading cause of death in the US [16], and, as such, novel treatments for increasingly prevalent conditions such as heart failure and atrial fibrillation are sorely needed.

The next series addresses hERG (Homo sapiens, UniProt Q12809). Kind of series: in vitro. Conditions: up to 30 µM. Type of series: cell-based. On the procedure: Ion Channel Assays: Cell lines were grown, plated, and loaded with 1× loading buffer containing 1× dye and 2.5 mM freshly prepared probenecid. Assays were performed, and activity was measured using a FLIPR Tetra. Percent of activation and percent of inhibition were calculated to determine agonist and antagonist activity, respectively. […]
The FLIPR Potassium Assay Kit from Molecular Devices is used. It exploits the permeability of thallium ions (Tl+) through both voltage-and ligand-gated potassium (K+) channels. A novel, highly-sensiti ve
Tl+ indicator dye is utilized which produces a bright fluorescent signal upon the binding to Tl+ conducted through potassium chan-nels. […]
KINOMEscan® Assay fluorescence for improved signal/noise ratio.
The KINOMEscan screening platform employs a novel and propri- Membrane Potential Assay etary active site-directed competition binding assay to quantitatively The FLIPR® Membrane Potential Assay Kit is used which utilizes a pro-measure interactions between test compounds and the kinases. prietary fluorescent indicator dye in combination with a quencher to This robust and reliable assay technology affords investigators the reflect real-time membrane potential changes associated with ion ability to extensively annotate compounds with accurate, precise channel activation and ion transporter proteins. […]

The next series addresses T1, HEK-Kir2.1 (Homo sapiens, UniProt P63252).
T1 construct: host or cells: HEK
Type of series: cell-based. As to conditions: CTP 0.1 to 30 µM; HEK cells; step to -120mV; 0.1% Pluronic F-68.

Ends that are not written are not given here.

hERG, sequence (Q12809 whole entry): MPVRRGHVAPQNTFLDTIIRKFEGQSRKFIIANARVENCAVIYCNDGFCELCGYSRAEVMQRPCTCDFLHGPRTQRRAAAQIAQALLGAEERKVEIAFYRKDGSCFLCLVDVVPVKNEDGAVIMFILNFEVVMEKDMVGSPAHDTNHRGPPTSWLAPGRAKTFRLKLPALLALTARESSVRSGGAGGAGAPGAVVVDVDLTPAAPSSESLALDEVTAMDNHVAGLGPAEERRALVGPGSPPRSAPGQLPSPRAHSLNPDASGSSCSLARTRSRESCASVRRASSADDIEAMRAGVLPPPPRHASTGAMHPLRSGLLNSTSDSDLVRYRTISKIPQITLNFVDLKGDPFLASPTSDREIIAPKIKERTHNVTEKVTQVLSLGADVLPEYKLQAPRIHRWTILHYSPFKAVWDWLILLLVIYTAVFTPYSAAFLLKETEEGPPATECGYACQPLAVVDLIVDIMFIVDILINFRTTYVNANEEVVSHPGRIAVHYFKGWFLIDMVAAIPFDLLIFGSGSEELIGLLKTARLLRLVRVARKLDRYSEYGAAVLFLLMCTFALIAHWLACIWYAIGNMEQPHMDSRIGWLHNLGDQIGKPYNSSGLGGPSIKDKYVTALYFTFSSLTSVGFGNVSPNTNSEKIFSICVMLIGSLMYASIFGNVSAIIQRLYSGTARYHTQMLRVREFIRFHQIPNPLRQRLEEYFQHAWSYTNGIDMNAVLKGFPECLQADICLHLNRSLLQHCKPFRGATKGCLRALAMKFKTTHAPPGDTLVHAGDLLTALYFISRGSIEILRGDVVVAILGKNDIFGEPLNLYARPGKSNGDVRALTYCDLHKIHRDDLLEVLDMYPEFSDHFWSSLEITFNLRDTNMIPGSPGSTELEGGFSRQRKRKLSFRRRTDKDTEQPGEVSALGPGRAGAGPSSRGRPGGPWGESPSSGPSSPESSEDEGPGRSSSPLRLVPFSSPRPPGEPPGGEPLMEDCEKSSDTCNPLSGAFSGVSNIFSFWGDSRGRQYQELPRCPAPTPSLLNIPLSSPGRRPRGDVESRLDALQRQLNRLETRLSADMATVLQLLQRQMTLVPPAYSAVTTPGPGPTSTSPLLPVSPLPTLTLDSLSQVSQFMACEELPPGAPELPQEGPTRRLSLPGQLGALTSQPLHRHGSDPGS
T1 sequence (P63252 whole entry): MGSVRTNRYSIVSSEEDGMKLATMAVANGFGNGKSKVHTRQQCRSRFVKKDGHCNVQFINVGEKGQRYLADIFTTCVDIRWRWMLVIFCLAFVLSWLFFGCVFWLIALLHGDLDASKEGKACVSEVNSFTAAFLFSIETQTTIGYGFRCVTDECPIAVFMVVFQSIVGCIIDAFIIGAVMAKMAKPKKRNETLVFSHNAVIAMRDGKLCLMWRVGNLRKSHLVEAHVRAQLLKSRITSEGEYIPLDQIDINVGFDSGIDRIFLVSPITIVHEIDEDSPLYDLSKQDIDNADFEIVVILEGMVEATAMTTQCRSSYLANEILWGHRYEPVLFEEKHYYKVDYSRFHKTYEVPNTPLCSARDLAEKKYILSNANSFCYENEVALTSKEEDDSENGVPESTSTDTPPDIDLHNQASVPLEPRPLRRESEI

Take APWHLSSQYSRT [CTP]: the “cell specificity in the heart” value in the series on cardiomyocytes (fibroblasts, endothelial cells, myofibroblasts spared, ref [19]) was “targets cardiomyocytes specifically while sparing the other cells”. In the series on cardiomyocytes (intravenous injection, "in as little as", ref our prior work), the “time to targeting of cardiomyocytes after intravenous injection” value is roughly 5 min. Besides, the “time to transduction of cardiomyocytes after intravenous injection” value in the series with cardiomyocytes (peripheral intravenous injection, "in as little as", ref [6],[15]) is on record as roughly 15 min. Moreover, in the series with cardiomyocytes (ref [15]), the “blood–brain barrier crossing” value is “does not cross the blood–brain barrier” and the “uptake by other tissues” value was “not taken up by the lungs, spleen, or other muscle subtypes”. On hERG (SAFETYscan ion channel assay), the blocking or activation entry was “no significant blocking or activation”. On hERG (human, blocker, FLIPR Tetra, read-out: RC50 (the source's name)), the IC50 is greater than 30 µM. Moreover, the “Estimated IC50” value at HEK-Kir2.1 is recorded as “N/C (Not calculable, inhibition >25% was not observed.)”.

These data come from paper PMC10818749, “Toxicity Studies of Cardiac-Targeting Peptide Reveal a Robust Safety Profile” (Pharmaceutics, 2024).
